According to paper doi:10.1101/2022.02.10.480023v1 (biorxiv, 2022):

Target: T1, AbDHDPS (Acinetobacter baumannii, UniProt D0CFC3)
T1 sequence (D0CFC3 1-297): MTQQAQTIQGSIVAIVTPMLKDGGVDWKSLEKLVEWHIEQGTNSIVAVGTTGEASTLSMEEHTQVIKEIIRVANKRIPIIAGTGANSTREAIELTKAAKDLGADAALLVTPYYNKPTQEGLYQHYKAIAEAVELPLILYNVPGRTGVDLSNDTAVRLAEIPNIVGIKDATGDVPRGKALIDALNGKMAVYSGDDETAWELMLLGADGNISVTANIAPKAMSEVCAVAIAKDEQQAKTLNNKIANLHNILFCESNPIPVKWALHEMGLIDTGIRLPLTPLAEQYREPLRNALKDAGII
Experiment: DHDPS-DHDPR coupled assay, NADPH oxidation at […] nm
Format: biochemical

CS(=O)(=O)NNc1ccccc1 [N’-phenylmethanesulfonohydrazide]
IC50: 35 µM
